Experiments:
[1] = system: Retinoblastoma Protein pRb1; test: Western blot of SiHa (HPV+) cell extracts; type: cell-based, human; conditions: 10 μM, 12 and 24 hours
[2] = Pharmacokinetics of OC246 after single oral administration; type: in vivo, female NMRI mice; conditions: single oral 50 mg/kg
Protocol: Pharmacokinetics were assessed for OC246 after single oral (p.o.) administration in female NMRI mice. The compound OC246 was suspended at 50 mg/kg with Lipoid S100 and Myritol 318. Oral dose was 50 mg/kg, Final Concentration 10 mg/ml and Administration Volume 5.0 ml/kg. Blood samples were taken from three mice at individual time points after 0.25, 0.5, 1, 2, 4, 6, 8, 16, and 24 hours from administration, and analyzed using HPLC and mass-spectroscopic bioanalytical methods.
obs: observed; tmax: time point at Cmax; tlast: time at last quantifiable concentration; Cmax: maximum observed concentration; Clast: last quantifiable concentration; SE: standard error; AUClast: area under the concentration-time curve (AUC) calculated with trapezoidal rule between dosing time to the last measurement time point with a conc. value above the lower limit of quantification; AUCinf(obs): AUC calculated using the trapezoidal rule from 0 hours to infinity; AUC % extrapol: percentage of AUCinf(obs) that is due to the extrapolation from tlast to infinity; Rsq: goodness of fit for the determination λz in the terminal elimination phase; λz(Lambda_z): terminal elimination rate constant (of at least three last measured concentrations); t1/2: apparent terminal elimination half-life; CLobs: observed total (systemic) body clearance; Vz_obs: apparent volume of distribution based on AUClast and λz.

SiHa (ATCC HTB-35) = test: Monolayer SRB assay, SiHa; type: cell-based; conditions: Homo sapiens, 72 hrs, HPV16
Protocol: (§1) Various cell culture cells grown as monolayers are harvested from exponential growing cultures after treatment with various OC compounds at different concentrations. For this depending on the cell line, 10.000 to 30.000 cells were plated in 96-well flat-bottom microtiter plates. After a 24 h recovery period to allow cells to resume exponential growth, supernatants are discarded and 100 μl of culture medium (eight control wells/plate) or culture medium with the test compound are added by a liquid handling robotic system (Microlab® Starlet, Hamilton) and treatment continued for 72 hrs. Compounds are applied at 9 concentrations and eight wells/concentration). At least three independent experiments are performed. For SRB staining, cells are fixed with SRB01 (Tab. 5) for 1 h at 4° C. […] Optical density is assessed using a plate-reader (Sunrise, Tecan©) at 540 nm.
(§2) Concentrations required for half maximal response of the compound for cell growth inhibition (EC50) is calculated by non-linear regression (log[conc. of inhibitor] versus response (% T/C)) using the analysis software GraphPad Prism®, Prism 5 for windows, version 5.01 (GraphPad Software Inc., CA).

Hela (ATCC CCL-2) = test: Monolayer SRB assay, Hela; type: cell-based; conditions: Homo sapiens, 72 hrs, HPV18
Protocol: as §1, §2

[3] = system: peripheral blood mononuclear cells (PBMC); test: Monolayer SRB assay, PBMC; type: cell-based
Protocol: as §1, §2

[4] = Pharmacokinetics of VSP034 and VSP035 after oral administration of a liposomal formulation; type: in vivo, female Sprague-Dawley rats; conditions: for AUC(0-inf) / Cmax / MRT inf / Tmax / half-life: female, Sprague-Dawley; for AUC(0-inf): AUC0-inf; for MRT inf: MRT0-inf
Protocol: The pharmacokinetic parameters of VSP034 and VSP035 encapsulated as liposomal formulation were assessed after the administration of a single 100 mg/kg dose by oral gavage to 6 female Sprague-Dawley rats weighting 250 grams (+25 g). The animals were randomized into two experimental groups (Groups 1 and 2), each composed of 3 rats. Rats belonging to group 1 were administered with VSP034 and rats belonging to group 2 were administered with VSP035. Blood was collected at baseline and 15 min, 30 min, 1, 2, 4, 6, 8, and 24 hours after the oral gavage. The rats were sacrificed 24 hours after the dosing. Blood was collected at each timepoint from the caudal vein, with the exception of the last collection (24 hours), which was performed by intracardiac puncture at the moment of sacrifice under isoflurane anesthesia. The animals were weighted immediately before the dosing to assess the proper dose and carefully monitored during the experiment. They were kept in standard housing conditions, meeting the legal requirements for the correct housing of rodents for a period not exceeding the maximum experimental endpoints. Ad libitum access to water and food was allowed. […] Humane endpoints have not been reached. The pharmacokinetic analysis was performed using Microsoft Excel plug-in PK Solver. Pharmacokinetic parameters of two compounds are compared with the software GraphPad Prism ver. 8.0 by Student's t test for unpaired data. A p value <0.05 is considered statistically significant.
Analytical method: Compound analysis was performed following the bioanalytical method as in Test 13. In this study, carbamazepine was used as an internal standard.
Pharmacokinetic analysis: A pharmacokinetic analysis of VSP034 and VSP035 was performed using the Excel plug-in 2.0 PK Solver. The results have been fitted according to a non-compartmental modelling following extravascular administration. Concentration-vs-time curves for VSP034 and VSP035.
The main pharmacokinetic parameters (half-life, t1/2; time to maximum plasma concentration, Tmax; maximum plasma concentration, Cmax, AUC Extrapolated to Infinity, AUC0-inf; mean residence time, MRT; Apparent Volume of Distribution During Terminal Phase, Vz/F; and apparent oral clearance, CL/F) were calculated from the coefficients and exponents of the best-fits by using standard formulae.

SARS-CoV-2 = test: SARS-CoV-2/Huh7-EGFP HTS antiviral Assay (96-well); type: cell-based; conditions: Severe acute respiratory syndrome coronavirus 2, Huh-7; sublethal dose of 10 μM, Huh7, n4
[5] = female, NMRI, mouse, blood, mean
[6] = rat, in vivo, po, 100 mg/kg, Mean
[7] = rat, in vivo, po, 100 mg/kg, Median

Q: For Cc1ccc(CN2C(=O)c3ccccc3[C@H](C(=O)Nc3cccc(N4CCN(C)CC4)c3)[C@@H]2c2ccc(C(F)(F)F)cc2)cc1 [OC246, N-[3-(4-methylpiperazin-1-yl)phenyl]-2-[(4-methylphenyl)methyl]-1-oxo-3-[4-(trifluoromethyl)phenyl]-1,2,3,4-tetrahydroisoquinoline-4-carboxamide], which Rb protein signals [1] is on record?
A: The Rb protein signals was “increase of Rb protein signals”.

Q: And the half-life ([2]; female, NMRI, mouse, blood)?
A: Its half-life is 2.25 h.

Q: What about the Tmax ([2]; female, NMRI, mouse, blood, Lipoid S100 and Myritol 318, mean) of the same compound?
A: The Tmax was 2 h.

Q: And the AUC(0-t) [2, 5]?
A: The AUC(0-t) was 11500 ng·h/mL.

Q: And the Cmax [2, 5]?
A: Its Cmax is 1740 ng/mL.

Q: And the AUC(0-inf) ([2]; female, NMRI, mouse, blood, mean, read-out: AUCinf(obs))?
A: The AUC(0-inf) was 11500 ng·h/mL.

Q: What about the concentration at 24 h ([2]; female, NMRI, mouse, blood, mean, read-out: Clast) of the same compound?
A: Its concentration at 24 h is 5.18 ng/mL.

Q: What about the “AUC% extrapol (obs)” value [2] of the same compound?
A: The value was 0.146%.

Q: What about the CLobs [2] of the same compound?
A: The CLobs was 72.38 mL/min/kg.

Q: What about the Vz_obs [2] of the same compound?
A: Its Vz_obs is 14.073 L/kg.

Q: What about the “λz (terminal elimination rate constant)” value [2] of the same compound?
A: The value was 0.309 h⁻¹.

Q: What about the tlast ([2]; mean) of the same compound?
A: Its tlast is 24.00 h.

Q: What about the EC50 (SiHa (ATCC HTB-35)) of the same compound?
A: The EC50 was 3.53 µM.

Q: And the EC50 (Hela (ATCC CCL-2))?
A: The EC50 was 2.68 µM.

Q: What about the EC50 [3] of the same compound?
A: The EC50 was over 100 µM.

Q: What does the source list for CN1CCC(CN2C(=O)c3ccccc3[C@H](C(=O)Nc3cccc(N4CCN(C)CC4)c3)[C@H]2c2ccc(C(F)(F)F)cc2)CC1 [VSP035, (3S,4S)-N-[3-(4-methylpiperazin-1-yl)phenyl]-2-[(1-methylpiperidin-4-yl)methyl]-1-oxo-3-[4-(trifluoromethyl)phenyl]-1,2,3,4-tetrahydroisoquinoline-4-carboxamide]?
A: AUC(0-inf) [4, 6]: 2230 ng·h/mL; AUC(0-inf) [4, 7]: 1480 ng·h/mL; Cmax [4, 6]: 246 ng/mL; Cmax [4, 7]: 277 ng/mL; MRT inf [4, 6]: 6.83 h; MRT inf [4, 7]: 6.59 h; Tmax [4, 6]: 2.42 h; Tmax [4, 7]: 1 h; half-life ([4]; rat, in vivo, po, 100 mg/kg, t1/2, Mean): 4.43 h; half-life ([4]; rat, in vivo, po, 100 mg/kg, t1/2, Median): 3.57 h; Vz/F, Mean ([4]; rat, in vivo, po, 100 mg/kg): 0.291 L/g; Vz/F, Median ([4]; rat, in vivo, po, 100 mg/kg): 0.278 L/g; condition of the rats after administration of the liposomal formulation ([4]; single 100 mg/kg oral gavage, observed 24 hours): did not show any sign of suffering or abnormal behavior; AUC relative to that of VSP034 ([4]; single 100 mg/kg oral, significantly higher): 4 fold; inhibition at 10 µM (SARS-CoV-2): 72 ± 7.7%

Reference: patent US12630523B2, “Isoquinoline derivatives for use as antiviral and antitumour agents” (priority 2021, dated 2026)
